Source: patent US10071103B2, “Treatments for resistant acne” (VYOME BIOSCIENCES PVT. LTD., priority 2014, dated 2018)

How the values were obtained:
[1] = system: IL-6; assay: P. acnes-induced IL-6 release in THP-1 cells (ELISA); format: cell-based; conditions: THP-1 cells
Protocol: (§1) Method: Preparation of Stimulant for Inflammation: P. acnes culture suspension was prepared in PBS and the cell number in the suspension was adjusted to approximately 5×10^8 CFU/ml by measuring the cell density using a Densimat. The bacterial suspension was then heat killed at 80° C. for 30 min and stored at −80° C. until further use.
(§2) Cells were seeded in a 96-well format (2×10^5 THP-1 cells per well) in media containing 10% FBS. The cells were stimulated to induce inflammatory cytokines using 3 McFarland equivalent heat-killed P. acnes. Cells in control wells were treated with PBS. One hour after induction with P. acnes, test agents were added to the induced cells at appropriate concentrations to be tested (compound 91 at 25 μg/ml). The plates were incubated at 37° C. for 24 hours. After 24 h, the plates were centrifuged to pellet the cells and the supernatants were collected. The cell culture supernatants thus obtained were analyzed for levels of cytokines (IL-1α, IL-1β, IL-6 and IL-8) by ELISA using R&D Systems kits for individual cytokines following the manufacturer's instructions.
as §1, with “Preparation” for “Method: Preparation”, “stimulant” for “Stimulant”, “inflammation:” for “Inflammation:”
(§3) Cells were seeded in a 96-well format (2×10^5 THP-1 cells per well) in media containing 10% FBS. The cells were stimulated to induce inflammatory cytokines using 3 McFarland equivalent heat-killed P. acnes. Cells in control wells were treated with PBS. One hour after induction with P. acnes, test agents were added to the induced cells at appropriate concentrations (Besifloxacin at 10 and 30 μg/ml; Adapalene at 0.04 and 0.4 μg/ml). The plates were incubated at 37° C. for 24 hours. After 24 h, the plates were centrifuged to pellet the cells and the supernatants were collected. The cell culture supernatants thus obtained were analyzed for cytokine levels (IL-6 and IL-8) by ELISA using R&D Systems kits for individual cytokines following the manufacturer's instructions.

[2] = system: IL-8; assay: P. acnes-induced IL-8 release in THP-1 cells (ELISA); format: cell-based; conditions: THP-1 cells
Protocol: as §1, §2
as §1, with “Preparation” for “Method: Preparation”, “stimulant” for “Stimulant”, “inflammation:” for “Inflammation:”
as §3

[3] = system: P. acnes CCARM 9010; assay: In vitro time kill kinetics, P. acnes CCARM 9010; format: cell-based, Propionibacterium acnes; conditions: 2.5 μg/ml
Protocol: P. acnes (CCARM 9010) Aqueous Suspension (0.5 McFarland standard equivalent) was centrifuged at 2000 rpm for 20 min, pellet was resuspended in Brain Heart Infusion (BHI) broth. Resultant P. acnes suspension was kept for overnight (16 h) incubation in anaerobic box at 37° C. Stock solution of besifloxacin.HCl (1 mg/ml) was prepared in dimethyl sulphoxide (DMSO) which was further diluted with BHI broth to achieve working stock of besifloxacin.HCl (25 μg/ml). Then reaction mixture was prepared by adding 900 μl of P. acnes 0.5 McFarland standard culture (after 16 h incubation) to 100 μl of besifloxacin.HCl working stock solution (25 μg/ml), final besifloxacin.HCl concentration in reaction mixture was 2.5 μg/ml. Reaction mixture (1 ml) was incubated at 37° C. for 24 h in an anaerobic box in two sets—(1) tube with P. acnes with 2.5 μg/ml Besifloxacin.HCl and 2) broth control without besifloxacin.HCl. At predetermined time points (1 h, 6 h and 24 h), cells were collected and plated in duplicate after serial dilution in Brain Heart Infusion agar plate. Plates were allowed to grow for 3 days at 37° C. in anaerobic box. After incubation, plates were counted to determine colony forming units (CFU) and log reduction was calculated. In a similar experimental set-up, water was used as solvent instead of DMSO and effects of solvents on time kill kinetics were also studied.
2) Zone of Inhibition (ZOI): For ZOI test, BHA plates were spread with 100 μl of P. acnes suspension (0.5 McFarland standard equal). Test samples (drugs/formulations) were dissolved in water/solvent based on the solubility. Sterile disc (6 mm) were loaded with 10 μl of test samples (of various concentration of drug), and were placed above the plates containing P. acnes culture. Then, plates were incubated at 37° C. for 48 h, followed by their ZOI measurements. 3) Time Kill Kinetics (TK): For TK Test, P. acnes (CCARM 9010) aqueous suspension (0.5 McFarland standard equivalent) was centrifuged at 2000 rpm for 20 min, pellet was resuspended in brain heart infusion (BHI) broth. Resultant P. acnes suspension was kept for overnight (16 h) incubation in anaerobic box at 37° C. Stock solution of besifloxacin.HCl (1 mg/ml) was prepared in dimethyl sulphoxide (DMSO) which was further diluted with BHI broth to obtain working stock of besifloxacin.HCl (25 μg/ml). Then reaction mixture was prepared by adding 900 μl of P. acnes 0.5 McFarland standard equal culture (after 16 h of incubation) and 100 μl of besifloxacin.HCl working stock (25 μg/ml), to obtain final besifloxacin.HCl concentration in reaction mixture, 2.5 μg/ml. Reaction mixture (1 ml) was incubated at 37° C. in an anaerobic box—(1) tube with P. acnes and 2.5 μg/ml Besifloxacin.HCl and 2) broth control without besifloxacin.HCl for 24 h. At predetermined time points (0 h, 2 h, 8 h and 24 h), cells were collected and plated in duplicate after serial dilution in brain heart infusion agar plate. Plates were allowed to grow for 3 days at 37° C. in anaerobic box. After incubation, plates were counted to determine colony forming units (CFU) and log reduction was calculated.
0.5 McFarland standard equal P. acnes (CCARM 9010) culture was prepared in sterile water. Prepared culture was centrifuged at 2000 rpm for 20 min then supernatant was removed and similar amount of brain heart infusion (BHI) broth was added. P. acnes culture in BHI broth was kept for overnight (16 h.) incubation in anaerobic box at 37° C. Besifloxacin powder was diluted in water and DMSO to prepare 1 mg/ml stock and then both were further diluted in BHI broth to make final concentration of 100 μg/ml. 900 μl of P. acnes 0.5 McFarland culture (after 16 h. incubation) and 100 μl of diluted Besifloxacin (100 μg/ml) were mixed to obtain final Besifloxacin concentration 10 μg/ml in reaction mixture. Total reaction mixture (1 ml) was incubated at 37° C. in an anaerobic box.

[4] = Cells + P. acnes + 10 μg/ml, 24 h, Table 70
[5] = Cells + P. acnes + 30 μg/ml, 24 h, Table 70
[6] = Cells + P. acnes + Besifloxacin•HCl 10 μg/ml, Table 71

Q: `Cl.N[C@@H]1CCCCN(c2c(F)cc3c(=O)c(C(=O)O)cn(C4CC4)c3c2Cl)C1` [Besifloxacin•HCl] was tested. Which “Expression of Cytokines IL-6 (pg/ml) Mean” value [1, 4] did it give?
A: The value was 282.45 pg/mL.

Q: And the “Expression of Cytokines IL-6 (pg/ml) Mean” value [1, 5]?
A: Its value is 124.58 pg/mL.

Q: What about the “Expression of Cytokines IL-6 (pg/ml) Mean” value [1, 6] of the same molecule?
A: The value was 282.45 pg/mL.

Q: What about the “Expression of Cytokines IL-8 (pg/ml) Mean” value [2, 4] of the same molecule?
A: The value was 2484.8 pg/mL.

Q: And the “Expression of Cytokines IL-8 (pg/ml) Mean” value [2, 5]?
A: Its value is 2301.6 pg/mL.

Q: And the “Expression of Cytokines IL-8 (pg/ml) Mean” value [2, 6]?
A: The value was 2484.76 pg/mL.

Q: And the “Log 10 value of P. acnes” value ([3]; stock in DMSO, 0 h)?
A: The value was 7.0 ± 0.02.

Q: What about the “Log 10 value of P. acnes” value ([3]; stock in DMSO, 1 h) of the same molecule?
A: Its value is 6.7 ± 0.03.

Q: What about the “Log 10 value of P. acnes” value ([3]; stock in DMSO, 6 h) of the same molecule?
A: The value was 6.0 ± 0.05.

Q: And the “Log 10 value of P. acnes” value ([3]; stock in DMSO, 24 h)?
A: Its value is 5.2 ± 0.02.

Q: What about the “Log 10 value of P. acnes” value ([3]; stock in water, 0 h) of the same molecule?
A: Its value is 7.0 ± 0.02.

Q: What about the “Log 10 value of P. acnes” value ([3]; stock in water, 1 h) of the same molecule?
A: The value was 6.7 ± 0.03.

Q: What about the “Log 10 value of P. acnes” value ([3]; stock in water, 6 h) of the same molecule?
A: Its value is 6.0 ± 0.02.

Q: What about the “Log 10 value of P. acnes” value ([3]; stock in water, 24 h) of the same molecule?
A: The value was 5.2 ± 0.02.
